In DBAASP:
≈ marks a conversion by molar mass, not a printed value. Where “and” joins values, the source holds several entries; their conditions need not be identical. Equal values may be shown once.

How the values were obtained:
Assay in all cases: ≥ marks a high value that may be exact or a test limit, other limits are often not marked, values filed in µg/mL are converted to µM
Escherichia coli JW0013 = tested on: Escherichia coli JW0013
[1] = tested on: Escherichia coli ATCC 25922
[2] = tested on: Klebsiella pneumoniae ATCC 13883
[3] = tested on: Pseudomonas aeruginosa PAO1
[4] = tested on: Staphylococcus aureus USA 300
[5] = tested on: Staphylococcus aureus ATCC 25923
Klebsiella pneumoniae = tested on: Klebsiella pneumoniae
Acinetobacter baumannii = tested on: Acinetobacter baumannii
[6] = tested on: Pseudomonas aeruginosa KCTC 1637
[7] = tested on: Staphylococcus aureus KCTC 1621
[8] = tested on: Salmonella typhimurium KCTC 1926
[9] = tested on: Bacillus subtilis KCTC 3068
[10] = tested on: Escherichia coli KCTC 1682
[11] = tested on: Staphylococcus epidermidis KCTC 1917
[12] = tested on: Salmonella enterica subsp. enterica serovar Typhimurium ATCC 14028
[13] = tested on: Acinetobacter baumannii ATCC 19606
Salmonella typhimurium = tested on: Salmonella typhimurium
Bacillus subtilis = tested on: Bacillus subtilis
Escherichia coli = tested on: Escherichia coli
Staphylococcus aureus = tested on: Staphylococcus aureus
[14] = tested on: Staphylococcus aureus ATCC 33591

MIC [1] | MIC [2] | MIC [6] | MIC [7] | MIC [8] | MIC [9] | MIC [10] | MIC [11] | Compound | further results
 |  |  |  |  |  |  |  | CC[C@H](C)[C@H](NC(=O)[C@H](CCCN=C(N)N)NC(=O)[C@H](CCCN=C(N)N)NC(=O)[C@@H]1CCCN1C(=O)[C@@H]1CCCN1C(=O)[C@H](CCCN=C(N)N)NC(=O)[C@H](CCCN=C(N)N)NC(=O)[C@H](CCCN=C(N)N)NC(=O)[C@@H]1CCCN1C(=O)[C@H](CC(C)C)NC(=O)[C@H](Cc1ccc(O)cc1)NC(=O)[C@H](Cc1cnc[nH]1)NC(=O)[C@H](CCCCN)NC(=O)[C@H](CCCCN)NC(=O)[C@H](CC(=O)O)NC(=O)[C@@H](N)C(C)C)C(=O)N[C@@H](Cc1ccc(O)cc1)C(=O)N[C@@H](CC(N)=O)C(=O)N[C@@H](CCCN=C(N)N)C(N)=O [VDKKHYLPRRRPPRRIYNR] | MIC (Escherichia coli JW0013): 0.952 µM (≈ 2.4 µg/mL)
> 25 µM | 25 µM (≈ 33.5 µg/mL) |  |  |  |  |  |  | CC(C)C[C@H](NC(=O)[C@H](CC(C)C)NC(=O)[C@H](CCCCN)NC(=O)CNC(=O)[C@H](CC(C)C)NC(=O)[C@H](CC(C)C)NC(=O)[C@H](CC(C)C)NC(=O)[C@H](CC(C)C)NC(=O)[C@H](CO)NC(=O)[C@H](CO)NC(=O)[C@H](CC(C)C)NC(=O)[C@H](CC(C)C)NC(=O)CN)C(N)=O [GLLSSLLLLGKLL] | MIC [3]: > 25 µM; MIC [4]: 3.1 µM (≈ 4.15 µg/mL)
15.1 µM and 26.6 µM | 30 µM (≈ 57.1 µg/mL) |  |  |  |  |  |  | CC(C)C[C@H](NC(=O)[C@H](CCCN=C(N)N)NC(=O)[C@H](CCCN=C(N)N)NC(=O)[C@H](C)NC(=O)[C@H](Cc1c[nH]c2ccccc12)NC(=O)CNC(=O)[C@H](CCCN=C(N)N)NC(=O)[C@@H](N)CCCN=C(N)N)C(=O)N[C@H](C(=O)N[C@@H](Cc1ccccc1)C(=O)N[C@@H](C)C(=O)N[C@@H](Cc1ccccc1)C(=O)NCC(=O)N[C@@H](CCCN=C(N)N)C(=O)N[C@@H](CCCN=C(N)N)C(N)=O)C(C)C [RRGWARRLVFAFGRR] | MIC [5]: > 30 µM; MIC (Klebsiella pneumoniae): 1.3 µM (≈ 2.47 µg/mL); MIC (Acinetobacter baumannii): 3.2 µM (≈ 6.09 µg/mL)
 |  | 8 µM (≈ 18.6 µg/mL) | 4 µM (≈ 9.28 µg/mL) | 4 µM (≈ 9.28 µg/mL) | 4 µM (≈ 9.28 µg/mL) | 8 µM (≈ 18.6 µg/mL) | 8 µM (≈ 18.6 µg/mL) | CC[C@H](C)[C@H](NC(=O)[C@H](CC(C)C)NC(=O)[C@@H](N)CC(C)C)C(=O)N[C@H](C(=O)N[C@@H](CC(C)C)C(=O)N[C@@H](CCCN=C(N)N)C(=O)N[C@@H](CCCN=C(N)N)C(=O)N[C@@H](CCCN=C(N)N)C(=O)N[C@@H](Cc1c[nH]c2ccccc12)C(=O)N[C@@H](CCCN=C(N)N)C(=O)N[C@@H](CCCCN)C(=O)N[C@@H](CCC(N)=O)C(=O)N[C@@H](C)C(=O)N[C@@H](CCCN=C(N)N)C(=O)N[C@@H](C)C(=O)N[C@@H](CCCN=C(N)N)C(=O)N[C@@H](CO)C(=O)N[C@@H](CCCCN)C(N)=O)[C@@H](C)CC [LLIILRRRWRKQARARSK] | 
 |  |  |  |  |  |  |  | CC[C@H](C)[C@H](NC(=O)[C@H](CCCN=C(N)N)NC(=O)[C@H](CCCN=C(N)N)NC(=O)[C@@H]1CCCN1C(=O)[C@@H]1CCCN1C(=O)[C@H](CCCN=C(N)N)NC(=O)[C@@H]1CCCN1C(=O)[C@H](CCCN=C(N)N)NC(=O)[C@@H]1CCCN1C(=O)[C@H](CC(C)C)NC(=O)[C@H](Cc1ccc(O)cc1)NC(=O)[C@@H]1CCCN1C(=O)[C@@H]1CCCN1C(=O)[C@H](CCCCN)NC(=O)[C@H](CC(=O)O)NC(=O)[C@@H](N)CCCN=C(N)N)C(=O)N[C@@H](Cc1ccc(O)cc1)C(=O)N[C@@H](CC(N)=O)C(=O)N[C@@H](CCCN=C(N)N)C(N)=O [RDKPPYLPRPRPPRRIYNR] | MIC (Escherichia coli JW0013): 1.96 µM (≈ 4.8 µg/mL)
 |  | 4 µM (≈ 7.58 µg/mL) | 2 µM (≈ 3.79 µg/mL) | 4 µM (≈ 7.58 µg/mL) | 4 µM (≈ 7.58 µg/mL) | 8 µM (≈ 15.2 µg/mL) | 8 µM (≈ 15.2 µg/mL) | CC[C@H](C)[C@H](NC(=O)[C@H](Cc1c[nH]c2ccccc12)NC(=O)[C@H](CCCN=C(N)N)NC(=O)[C@@H](NC(=O)[C@@H](NC(=O)[C@H](CCCN=C(N)N)NC(=O)[C@H](CCCCN)NC(=O)[C@@H](N)Cc1c[nH]c2ccccc12)[C@@H](C)CC)C(C)C)C(=O)N[C@@H](CCCCN)C(=O)N[C@@H](CCCN=C(N)N)C(=O)N[C@@H](Cc1c[nH]c2ccccc12)C(=O)N[C@@H](CC(C)C)C(=O)N[C@@H](CCCN=C(N)N)C(N)=O [WKRIVRWIKRWLR] | 
 |  | 8 µM (≈ 19 µg/mL) | 4 µM (≈ 9.48 µg/mL) | 4 µM (≈ 9.48 µg/mL) | 2 µM (≈ 4.74 µg/mL) | 8 µM (≈ 19 µg/mL) | 4 µM (≈ 9.48 µg/mL) | CC[C@H](C)[C@H](N)C(=O)NCC(=O)N[C@@H](CCCCN)C(=O)N[C@@H](CC(C)C)C(=O)N[C@@H](Cc1ccccc1)C(=O)N[C@@H](CCCCN)C(=O)N[C@@H](CCCN=C(N)N)C(=O)N[C@H](C(=O)N[C@H](C(=O)N[C@@H](CCCCN)C(=O)N[C@@H](CCCN=C(N)N)C(=O)N[C@H](C(=O)N[C@@H](CC(C)C)C(=O)N[C@@H](CCCCN)C(=O)N[C@@H](Cc1ccccc1)C(=O)N[C@@H](CC(C)C)C(=O)N[C@@H](CCCN=C(N)N)C(=O)N[C@@H](CCCCN)C(=O)N[C@@H](CC(C)C)C(=O)O)[C@@H](C)CC)C(C)C)[C@@H](C)CC [IGKLFKRIVKRILKFLRKL] | 
 | 2.6 µM (≈ 5.44 µg/mL) |  |  |  |  |  |  | CC(C)C[C@H](NC(=O)[C@H](CCCN=C(N)N)NC(=O)[C@H](CCCN=C(N)N)NC(=O)[C@H](C)NC(=O)[C@H](Cc1c[nH]c2ccccc12)NC(=O)CNC(=O)[C@H](CCCN=C(N)N)NC(=O)[C@@H](N)CCCN=C(N)N)C(=O)N[C@@H](C)C(=O)N[C@@H](Cc1ccccc1)C(=O)N[C@@H](C)C(=O)N[C@@H](Cc1ccccc1)C(=O)N[C@@H](C)C(=O)N[C@@H](Cc1ccccc1)C(=O)NCC(=O)N[C@@H](CCCN=C(N)N)C(=O)N[C@@H](CCCN=C(N)N)C(N)=O [RRGWARRLAFAFAFGRR] | MIC [5]: 26.3 µM and 30 µM; MIC [12]: 1.5 µM (≈ 3.14 µg/mL); MIC [3]: 2.5 µM and 5.2 µM; MIC [13]: 6.2 µM (≈ 13 µg/mL)
> 25 µM | 25 µM (≈ 33.5 µg/mL) |  |  |  |  |  |  | CC(C)C[C@H](NC(=O)[C@H](CC(C)C)NC(=O)[C@H](CCCCN)NC(=O)[C@H](CC(C)C)NC(=O)CNC(=O)[C@H](CC(C)C)NC(=O)[C@H](CO)NC(=O)[C@H](CC(C)C)NC(=O)[C@H](CC(C)C)NC(=O)[C@H](CO)NC(=O)CNC(=O)[C@H](CC(C)C)NC(=O)[C@@H](N)CC(C)C)C(N)=O [LLGSLLSLGLKLL] | MIC [3]: > 25 µM; MIC [4]: 1.6 µM (≈ 2.14 µg/mL)
 |  |  |  |  |  |  |  | CC[C@H](C)[C@H](NC(=O)[C@H](CCCN=C(N)N)NC(=O)[C@@H](NC(=O)[C@@H](NC(=O)[C@@H](NC(=O)CN)C(C)C)C(C)C)C(C)C)C(=O)NCC(=O)N[C@@H](CCCN=C(N)N)C(=O)N[C@H](C(=O)N[C@H](C(=O)N[C@H](C(=O)N[C@@H](CCCN=C(N)N)C(=O)NCC(=O)N[C@H](C(=O)N[C@@H](CCCN=C(N)N)C(=O)N[C@@H](CCCN=C(N)N)C(N)=O)C(C)C)C(C)C)[C@@H](C)CC)C(C)C [GVVVRIGRVIVRGVRR] | MIC (Salmonella typhimurium): 4 µM (≈ 7.16 µg/mL); MIC (Bacillus subtilis): 4 µM (≈ 7.16 µg/mL); MIC (Escherichia coli): 8 µM (≈ 14.3 µg/mL); MIC (Staphylococcus aureus): 8 µM (≈ 14.3 µg/mL)
 |  | 8 µM (≈ 17.2 µg/mL) | 4 µM (≈ 8.61 µg/mL) | 4 µM (≈ 8.61 µg/mL) | 4 µM (≈ 8.61 µg/mL) | 8 µM (≈ 17.2 µg/mL) | 8 µM (≈ 17.2 µg/mL) | CC[C@H](C)[C@H](NC(=O)[C@H](CC(C)C)NC(=O)[C@@H](N)CC(C)C)C(=O)N[C@H](C(=O)N[C@@H](CC(C)C)C(=O)N[C@@H](CCCCN)C(=O)N[C@@H](CCCCN)C(=O)N[C@@H](CCCCN)C(=O)N[C@@H](Cc1c[nH]c2ccccc12)C(=O)N[C@@H](CCCCN)C(=O)N[C@@H](CCCCN)C(=O)N[C@@H](CCC(N)=O)C(=O)N[C@@H](C)C(=O)N[C@@H](CCCCN)C(=O)N[C@@H](C)C(=O)N[C@@H](CCCCN)C(=O)N[C@@H](CO)C(=O)N[C@@H](CCCCN)C(N)=O)[C@@H](C)CC [LLIILKKKWKKQAKAKSK] | 
 |  | 8 µM (≈ 19 µg/mL) | 4 µM (≈ 9.5 µg/mL) | 4 µM (≈ 9.5 µg/mL) | 4 µM (≈ 9.5 µg/mL) | 8 µM (≈ 19 µg/mL) | 8 µM (≈ 19 µg/mL) | CC[C@H](C)[C@H](NC(=O)[C@H](CC(C)C)NC(=O)[C@@H](N)CC(C)C)C(=O)N[C@H](C(=O)N[C@@H](CC(C)C)C(=O)N[C@@H](CCCN=C(N)N)C(=O)N[C@@H](CCCN=C(N)N)C(=O)N[C@@H](CCCN=C(N)N)C(=O)N[C@@H](Cc1c[nH]c2ccccc12)C(=O)N[C@@H](CCCN=C(N)N)C(=O)N[C@@H](CCCN=C(N)N)C(=O)N[C@@H](CCC(N)=O)C(=O)N[C@@H](C)C(=O)N[C@@H](CCCN=C(N)N)C(=O)N[C@@H](C)C(=O)N[C@@H](CCCN=C(N)N)C(=O)N[C@@H](CO)C(=O)N[C@@H](CCCN=C(N)N)C(N)=O)[C@@H](C)CC [LLIILRRRWRRQARARSR] | 
> 256 µM |  |  |  |  |  |  |  | CSCC[C@H](NC(=O)[C@H](CCCN=C(N)N)NC(=O)[C@H](CCCN=C(N)N)NC(=O)[C@H](CC(N)=O)NC(=O)[C@H](CCC(N)=O)NC(=O)[C@@H](N)Cc1ccccc1)C(=O)N[C@@H](CCCCN)C(=O)N[C@@H](Cc1c[nH]c2ccccc12)C(=O)N[C@@H](CCCCN)C(=O)N[C@@H](CCCCN)C(N)=O [FQNRRMKWKK] | MIC [14]: ≥ 256 µM
